Patent publication US4416877A, “Anti-atherosclerotic pharmaceutical compositions containing diphosphonate compounds” (priority 1979, dated 1983)
Read-outs that look alike come from different tables or passages of the source.

How the values were obtained:
[1] = system: lipid metabolism; assay: Effects of diphosphonates on lipid metabolism in normal rats (serum lipids, α/β cholesterol); type: in vivo, male Wistar rats; settings: for change in vivo at 200 mg/kg/day: Rattus norvegicus, po, normal rats (N), 200 mg/kg/day p.o.
Experimental: Effects of diphosphonates of formula (I) on lipid metabolism in normal rats Groups of 4 to 5 normal male Wistar rats, weighing about 200 g were treated with diphosphonates (200 mg/kg/day) p.o. for 4 to 21 days. Water soluble compounds were given in solution in 24 mM bicarbonate buffer. Lipid soluble compounds were given in corn oil. The rats were weighed, sacrificed by decapitation (under light ether anesthesia) after overnight fasting. Blood was collected and serum used for analysis. The following blood parameters reflecting changes in lipid metabolism are reported: […]
free fatty acids measured according to W. G. Duncombe (Clin. Acta 9, 122, 1964) triglycerides enzymatic method (Boehringer Mannheim Kit 126 012) phospholipids: molybdate/vanadate reaction (Boehringer Mannheim Kit 124 974) β-lipoprotein cholesterol was measured after heparin, CaCl2 precipitation according to M. Burstein et al. (La Presse Medicale 43, 974, 1958) and to D. Watson (Clin. Chim. Acta 5, 637, 1960).
(§1) In above Table IV, results are given as % control values. Except for serum calcium, values which differ from control values by less than 15% are considered as non significant (NS).
Serum free fatty acids, triglycerides and phospholipids were measured in normal rats (N) and rats previously fed a cholesterol diet for 10 days (C.F.) Serum α/β cholesterol, total lipids and cholesterol of liver and aorta were determined in normal rats (N) and rats which had previously been fed on high cholesterol diet (C.F.)

[2] = system: tissue cholesterol; assay: Effects in cholesterol fed rats (serum, liver and aorta lipids); type: in vivo; settings: for change in vivo at 200 mg/kg/day: Rattus norvegicus
Experimental: Effects of diphosphonates of formula (I) in cholesterol fed rats
In order to increase tissue cholesterol, especially liver, rats were fed a high fat-high cholesterol diet for 10 days to 3 months, with the following diet composition: casein 20%, butter 37%, cellulose 9.1%, dextrose 18,9%, cholesterol 4.5%, sodium cholate 1.8%, minerals 7.3%, vitamins 1%, choline 0.4%.
The rats were then fed normal food and were treated for 10 days to 3 months with different compounds (200 mg/kg/day). Serum parameters described above were measured. Liver and aorta lipids were extracted according to J. Folch et al (J. Biochem. 226, 497, 1957). Total lipids were determined by the sulfophosphovanillic reaction (see N. Zolner and K. Kirsch, Z. Ges. exp. Med. 135, 545, 1962) and cholesterol by the Liebermann-Burchard reaction or appropriate enzymatic reaction.
as §1
Serum free fatty acids, triglycerides and phospholipids were measured in normal rats (N) and rats previously fed a cholesterol diet for 10 days (C.F.)
Serum α/β cholesterol, total lipids and cholesterol of liver and aorta were determined in normal rats (N) and rats which had previously been fed on high cholesterol diet (C.F.)

[3] = system: lipoprotein cholesterol; assay: Lipoprotein cholesterol changes in normal rats treated for 90 days; type: in vivo, male and female rats
Experimental: Treating male and female rats with 40, 400 and 800 mg/kg of compound 16 per day for 90 days produced a sustained dose response augmentation in serum high density lipoprotein cholesterol (HDL-C or α-cholesterol) as high as 220% above controls at high dose level (Table VI).
*Plasma was pooled from 5 animals of each group and analyzed.

[4] = system: lipoprotein cholesterol; assay: Lipoprotein cholesterol in cholesterol pre-fed rabbits; type: in vivo; settings: 200 mg/kg per day, 4 months, n = 5
From the text: Animals were fed a cholesterol rich diet for 8 weeks before treatment was
started which continued for 4 months without cholesterol supplement.

[5] = system: liver cholesterol; assay: Liver cholesterol clearing activity in cholesterol pre-fed rabbits; type: in vivo; settings: 4 months; for Liver Cholesterol / Liver Cholesterol Free/Ester Ratio / Liver Phospholipids / Liver Total Lipids / Liver/Body Weight % Change: n = 5
[6] = system: renin; assay: Renin activity in Cynomolgus monkeys fed simultaneously a high cholesterol diet; type: in vivo; settings: for Renin Activity: n = 7
Experimental: | Dose: 25 mg d.i.d. per day

[7] = cholesterol fed rats (C.F), 200 mg/kg/day
[8] = simultaneous cholesterol-compound 16 treatment

With COP(=O)(OC)OC(c1ccc(Cl)cc1)P(=O)(OC)OC (stereo not drawn) [Compound 16, Dimethyl α(dimethoxyphosphinyl) p-chlorobenzyl phosphate] the change in vivo at 200 mg/kg/day ([1]; read-out: Serum Chol. α/β (% control values)) was 121%, the change in vivo at 200 mg/kg/day ([1]; read-out: Serum Free Fatty Acids (% control values)) was -50% and the change in vivo at 200 mg/kg/day ([1]; read-out: Serum Phospholipids (% control values)) was 26%. The change in vivo at 200 mg/kg/day ([1]; read-out: Serum Triglycerides (% control values)) was less than 15%, the “increased HDL lipids, especially HDL cholesterol” value ([1]; normal rats) was “observed most dramatically” and the “increase in serum phospholipid” value ([1]; rats) was “found to increase”. The “α-cholesterol/β-cholesterol ratio / lipoprotein cholesterol” value ([1]; rats) was “highly significant activity”, the change in vivo at 200 mg/kg/day ([2]; cholesterol fed rats (C.F), 200 mg/kg/day, read-out: Liver Chol. (% control values)) was -57% and the change in vivo at 200 mg/kg/day ([2]; cholesterol fed rats (C.F), 200 mg/kg/day, read-out: Liver Total Lipids (% control values)) was -32%. The “liver total lipids and/or liver cholesterol” value ([2]; cholesterol fed rats) was “decreased significantly”, the “Aorta Chol. (% control values)” value [2, 7] was -30% and the “Aorta Total Lipids (% control values)” value [2, 7] was -37%. The “Serum Chol. α/β (% control values)” value [2, 7] was “+169%”, the α-chol ([3]; 40 mg/kg, female) was 54 mg/dL and the α/β ratio ([3]; 40 mg/kg, female) was 6.0. The β-chol ([3]; 40 mg/kg, female) was 9.0 mg/dL, the α-chol ([3]; 40 mg/kg, male) was 63 mg/dL and the α/β ratio ([3]; 40 mg/kg, male) was 7.6. The β-chol ([3]; 40 mg/kg, male) was 8.3 mg/dL, the α-chol ([3]; 400 mg/kg, female) was 68 mg/dL and the α/β ratio ([3]; 400 mg/kg, female) was 11.5. For the same compound, the β-chol ([3]; 400 mg/kg, female) was 5.9 mg/dL, the α-chol ([3]; 400 mg/kg, male) was 78 mg/dL and the α/β ratio ([3]; 400 mg/kg, male) was 11.5. It also gave a β-chol ([3]; 400 mg/kg, male) of 7.6 mg/dL, a α-chol ([3]; 800 mg/kg, female) of 117 mg/dL and a α/β ratio ([3]; 800 mg/kg, female) of 11.3. It also gave a β-chol ([3]; 800 mg/kg, female) of 10.3 mg/dL, a α-chol ([3]; 800 mg/kg, male) of 128 mg/dL and a α/β ratio ([3]; 800 mg/kg, male) of 10.7. For the same compound, the β-chol ([3]; 800 mg/kg, male) was 11.9 mg/dL, the “augmentation in serum HDL-C (α-cholesterol) above controls” value ([3]; high dose level (800 mg/kg)) was no more than 220% and the “Total Cholesterol” value [4] was 127.0 ± 68.0. It also gave a α-chol [4] of 41.1 ± 11.1, a α/β-ratio [4] of 0.94 and a β-chol [4] of 63.4 ± 43.0. For the same compound, the α/β-ratio ([4]; listed as Cpd 16) was 0.94 ± 0.20, the “Liver Cholesterol” value ([5]; 100 mg/kg/day) was 3.1 ± 1.2 mg/g and the “Liver Cholesterol Free/Ester Ratio” value ([5]; 100 mg/kg/day) was 2.23 ± 0.27. For the same compound, the “Liver Phospholipids” value ([5]; 100 mg/kg/day) was 20.7 ± 2.7 mg/g, the “Liver Total Lipids” value ([5]; 100 mg/kg/day) was 20.5 ± 3.4 mg/g and the “Liver/Body Weight % Change” value ([5]; 100 mg/kg/day) was “+8%”. The “Liver Cholesterol” value ([5]; 200 mg/kg/day) was 3.9 ± 1.4 mg/g, the “Liver Cholesterol Free/Ester Ratio” value ([5]; 200 mg/kg/day) was 2.24 ± 0.46 and the “Liver Phospholipids” value ([5]; 200 mg/kg/day) was 26.3 ± 3.1 mg/g. The “Liver Total Lipids” value ([5]; 200 mg/kg/day) was 25.9 ± 2.9 mg/g, the “Liver/Body Weight % Change” value ([5]; 200 mg/kg/day) was “+12%” and the “pre-established cholesterol deposits, liver” value ([5]; cholesterol pre-fed rabbits) was “effectively decreased the pre-established cholesterol deposits”. The “Renin Activity” value ([6]; 30 days on high cholesterol diet) was 0.8 ± 0.5 ng AI /ml/h, the “Renin Activity” value ([6]; 60 days on high cholesterol diet) was 1.1 ± 0.2 ng AI /ml/h and the “renin inhibition” value [6, 8] was “essentially completely inhibited”. For the same compound, the “renin inhibition, fold” value [6, 8] was 20 fold.
